Reference: patent US8629157B2, “Pyrrolidine compounds which modulate the CB2 receptor” (Boehringer Ingelheim International GmbH, priority 2009, dated 2014)
pEC50: −log10 of the molar value. Where two headings read alike, the source gives them in different places.

Biological target: human CB2R (Homo sapiens, UniProt P34972)
Assay: CB2R mediated modulation of cAMP synthesis
Assay type: cell-based
Settings: for EC50: CHO cells expressing human CB2R, inhibition of forskolin-stimulated cAMP synthesis, mean, read-out: CB2 CAMP @ EC50 nM (mean)
Procedure, shortened: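 cAMP measured with the DiscoverX-XS kit after 30 min, 37° C. compound exposure of human CB2R-expressing CHO cells stimulated by 10 uM forskolin (1 mM IBMX, 0.25% BSA).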

Sequence of human CB2R (P34972 whole entry): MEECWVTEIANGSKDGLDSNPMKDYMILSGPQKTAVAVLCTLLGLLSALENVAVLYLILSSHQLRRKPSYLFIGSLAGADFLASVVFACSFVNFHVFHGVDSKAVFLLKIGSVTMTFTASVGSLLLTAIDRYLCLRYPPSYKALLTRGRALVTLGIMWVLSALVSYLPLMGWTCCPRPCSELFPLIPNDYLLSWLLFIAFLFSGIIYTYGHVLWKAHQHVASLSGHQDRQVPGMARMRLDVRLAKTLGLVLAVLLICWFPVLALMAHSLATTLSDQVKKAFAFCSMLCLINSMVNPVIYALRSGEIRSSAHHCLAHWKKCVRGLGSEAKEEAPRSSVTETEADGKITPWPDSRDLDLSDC

Row | SMILES | pEC50 | EC50
1 | O=C(Nc1nc2ccc(Cl)cc2s1)[C@@H]1CCCN1CC1CCOCC1 [(S)-1-(Tetrahydro-pyran-4-ylmethyl)-pyrrolidine-2-carboxylic acid (6-chloro-benzothiazol-2-yl)-amide] | 6.73 | 
2 | CC(C)(C)Cc1cc(NC(=O)[C@@H]2CCCN2CC2CCOCC2)on1 [(S)-1-(Tetrahydro-pyran-4-ylmethyl)-pyrrolidine-2-carboxylic acid [3-(2,2-dimethyl-propyl)-isoxazol-5-yl]-amide] | 8.46 | 
3 | CC(C)(CO)c1cc(NC(=O)[C@@H]2CCCN2C2CCOCC2)on1 [(S)-1-(tetrahydro-pyran-4-yl)-pyrrolidine-2-carboxylic acid [3-(2-hydroxy-1,1-dimethyl-ethyl)-isoxazol-5-yl]-amide] | 7.30 | 
4 | CC(C)(C)c1cc(NC(=O)[C@@H]2CCCN2C2CCC2)on1 [(S)-1-Cyclobutyl-pyrrolidine-2-carboxylic acid (3-tert-butyl-isoxazol-5-yl)-amide] | 8.20 | 
5 | CC(C)(C)c1nnc(NC(=O)[C@@H]2CCCN2C2CCC2)s1 [(S)-1-Cyclobutyl-pyrrolidine-2-carboxylic acid (5-tert-butyl-1,3,4-thiadiazol-2-yl)-amide] | 6.59 | 
6 | CC(C)(C)c1cc(NC(=O)[C@@H]2CCCN2CC2C=CCCC2)on1 (stereo partly drawn) [(S)-1-Cyclohex-2-enylmethyl-pyrrolidine-2-carboxylic acid (3-tert-butyl-isoxazol-5-yl)-amide] | 10.14 | 
7 | CC(C)(C)c1cc(NC(=O)[C@@H]2CCCN2C2CCCCC2)on1 [(S)-1-Cyclohexyl-pyrrolidine-2-carboxylic acid (3-tert-butyl-isoxazol-5-yl)-amide] | 9.76 | 
8 | CC(C)(C)c1nnc(NC(=O)[C@@H]2CCCN2C2CCCCC2)s1 [(S)-1-Cyclohexyl-pyrrolidine-2-carboxylic acid (5-tert-butyl-1,3,4-thiadiazol-2-yl)-amide] | 7.52 | 
9 | CC(C)(C)c1cc(NC(=O)[C@@H]2CCCN2CC2CCCCC2)on1 [(S)-1-Cyclohexylmethyl-pyrrolidine-2-carboxylic acid (3-tert-butyl-isoxazol-5-yl)-amide] | 10.10 | 
10 | CC(C)(C)c1cc(NC(=O)[C@@H]2CCCN2C2CCCC2)on1 [(S)-1-Cyclopentyl-pyrrolidine-2-carboxylic acid (3-tert-butyl-isoxazol-5-yl)-amide] | 8.62 | 
11 | CC(C)(C)c1nnc(NC(=O)[C@@H]2CCCN2C2CCCC2)s1 [(S)-1-Cyclopentyl-pyrrolidine-2-carboxylic acid (5-tert-butyl-1,3,4-thiadiazol-2-yl)-amide] | 6.78 | 
12 | CC(C)(C)Cc1cc(NC(=O)[C@@H]2CCCN2C2CCCC2)on1 [(S)-1-Cyclopentyl-pyrrolidine-2-carboxylic acid [3-(2,2-dimethyl-propyl)-isoxazol-5-yl]-amide] | 6.95 | 
13 | CC(C)(C)c1cc(NC(=O)[C@@H]2CCCN2C2CC2)on1 [(S)-1-Cyclopropyl-pyrrolidine-2-carboxylic acid (3-tert-butyl-isoxazol-5-yl)-amide] | 8.50 | 
14 | CC(C)(C)c1nnc(NC(=O)[C@@H]2CCCN2C2CC2)s1 [(S)-1-Cyclopropyl-pyrrolidine-2-carboxylic acid (5-tert-butyl-1,3,4-thiadiazol-2-yl)-amide] |  | 109 nM
15 | CC(C)(C)c1cc(NC(=O)[C@@H]2CCCN2CC2CC2)on1 [(S)-1-Cyclopropylmethyl-pyrrolidine-2-carboxylic acid (3-tert-butyl-isoxazol-5-yl)-amide] | 7.94 | 
16 | CC(C)(C)c1nnc(NC(=O)[C@@H]2CCCN2CC2CC2)s1 [(S)-1-Cyclopropylmethyl-pyrrolidine-2-carboxylic acid (5-tert-butyl-1,3,4-thiadiazol-2-yl)-amide] | 6.47 | 
17 | CC(C)(C)Cc1cc(NC(=O)[C@@H]2CCCN2CC2CC2)on1 [(S)-1-Cyclopropylmethyl-pyrrolidine-2-carboxylic acid [3-(2,2-dimethyl-propyl)-isoxazol-5-yl]-amide] | 7.65 | 
18 | CC(C)N1CCC[C@H]1C(=O)Nc1cc(C(C)(C)C)no1 [(S)-1-Isopropyl-pyrrolidine-2-carboxylic acid (3-tert-butyl-isoxazol-5-yl)-amide] | 6.79 | 
19 | CC(C)(C)c1cc(NC(=O)[C@@H]2CCCN2c2ncccn2)on1 [(S)-1-Pyrimidin-2-yl-pyrrolidine-2-carboxylic acid (3-tert-butyl-isoxazol-5-yl)-amide] |  | 109 nM
20 | CC(C)(C)c1cc(NC(=O)[C@]2(C)CCCN2c2ccc(C(F)(F)F)cc2)no1 [(S)-2-Methyl-1-(4-trifluoromethyl-phenyl)-pyrrolidine-2-carboxylic acid (5-tert-butyl-isoxazol-3-yl)-amide] | 9.70 | 
21 | C[C@@]1(C(=O)Nc2nc(-c3ccccc3)ns2)CCCN1c1ccc(C(F)(F)F)cn1 [(S)-2-Methyl-1-(5-trifluoromethyl-pyridin-2-yl)-pyrrolidine-2-carboxylic acid (3-phenyl-1,2,4-thiadiazol-5-yl)-amide] | 9.87 | 
22 | CC(C)(C)c1cc(NC(=O)[C@]2(C)CCCN2c2ccc(C(F)(F)F)cn2)no1 [(S)-2-Methyl-1-(5-trifluoromethyl-pyridin-2-yl)-pyrrolidine-2-carboxylic acid (5-tert-butyl-isoxazol-3-yl)-amide] | 10.82 | 
23 | C[C@@]1(C(=O)Nc2ccc(C(F)(F)F)cn2)CCCN1c1ccc(C(F)(F)F)cn1 [(S)-2-Methyl-1-(5-trifluoromethyl-pyridin-2-yl)-pyrrolidine-2-carboxylic acid (5-trifluoromethyl-pyridin-2-yl)-amide] | 9.20 | 
24 | CC(C)(C)c1cc(NC(=O)[C@@H]2CCC(=O)N2c2cc(F)c(F)c(F)c2)on1 [(S)-5-Oxo-1-(3,4,5-trifluoro-phenyl)-pyrrolidine-2-carboxylic acid (3-tert-butyl-isoxazol-5-yl)-amide] | 7.10 | 
25 | CC(C)(C)c1cc(NC(=O)[C@@H]2CCC(=O)N2c2cc(F)c(F)c(F)c2)no1 [(S)-5-Oxo-1-(3,4,5-trifluoro-phenyl)-pyrrolidine-2-carboxylic acid (5-tert-butyl-isoxazol-3-yl)-amide] | 7.13 | 
26 | CC(C)(C)c1cc(NC(=O)[C@@H]2CCC(=O)N2c2ccc(OC(F)(F)F)cc2)on1 [(S)-5-Oxo-1-(4-trifluoromethoxy-phenyl)-pyrrolidine-2-carboxylic acid (3-tert-butyl-isoxazol-5-yl)-amide] | 7.46 | 
27 | CC(C)(C)c1cc(NC(=O)[C@@H]2CCC(=O)N2c2ccc(OC(F)(F)F)cc2)no1 [(S)-5-Oxo-1-(4-trifluoromethoxy-phenyl)-pyrrolidine-2-carboxylic acid (5-tert-butyl-isoxazol-3-yl)-amide] | 6.88 | 
28 | CC(C)c1cc(NC(=O)[C@@H]2CCC(=O)N2c2ccc(C(F)(F)F)cc2)on1 [(S)-5-Oxo-1-(4-trifluoromethyl-phenyl)-pyrrolidine-2-carboxylic acid (3-isopropyl-isoxazol-5-yl)-amide] | 7.38 | 
29 | CCC(C)c1cc(NC(=O)[C@@H]2CCC(=O)N2c2ccc(C(F)(F)F)cc2)on1 (stereo partly drawn) [(S)-5-Oxo-1-(4-trifluoromethyl-phenyl)-pyrrolidine-2-carboxylic acid (3-sec-butyl-isoxazol-5-yl)-amide] | 7.39 | 
30 | CC(C)(C)c1cc(NC(=O)[C@@H]2CCC(=O)N2c2ccc(C(F)(F)F)cc2)sn1 [(S)-5-Oxo-1-(4-trifluoromethyl-phenyl)-pyrrolidine-2-carboxylic acid (3-tert-butyl-isothiazol-5-yl)-amide] | 6.95 | 
